Key:
recombinant human renin = recombinant human renin (Homo sapiens (Human), UniProt P00797); experiment: In-vitro fluorescence assay for identification of renin-inhibitory activity; assay type: biochemical; conditions: recombinant human renin 10 nM, pH 7.2; read-out: Renin selectivity IC50
Procedure, shortened: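 Recombinant human renin (10 nM) pre-incubated 15 min at RT with serially diluted compound in 50 mM Mops pH 7.2, 1.5% DMSO, 0.1% Igepal, 0.5% BSA; Edans/Dabcyl FRET peptide (5 µM final) added, 60 min at 37 °C; cleavage read as fluorescence increase (ex 340/em 495 nm) against no-compound wells.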

[1] = Stability in bovine synovial fluid; assay type: in vitro ADME; conditions: 1 μM, 48 h at 37° C.
Method: In order to check the stability of individual compounds, a pool of four different bovine synovial fluids is mixed. To this end, about 1 ml per SF is used. The mixture is prepared directly in a 5 ml glass vessel. The SFs are mixed thoroughly, but carefully. No air bubbles or foam should form. To this end, a vortex unit is used at the lowest speed. The compounds to be tested are tested in an initial concentration (unless required otherwise) of 1 μM. After addition of the substance, the batch is again mixed thoroughly and carefully. For visual monitoring, all SF batches are photographed, and the pictures are filed in the eLabBio file for the corresponding experiment. […] The batches are incubated in the incubator for 48 h at 37° C. and 7.5% CO2.
The sampling is carried out after the pre-agreed times (unless required otherwise, see below). 200 μl of the SF are removed from the mixture per time and transferred directly into a 0.5 ml “low-binding” Eppendorf vessel. “Low-binding” Eppendorf vessels are used in order to minimise interaction of the substances with the plastic of the vessels. 200 μl of acetonitrile have already been introduced into the Eppendorf vessel, so that a 1+1 mixture of the SF forms thereafter. This simplifies the subsequent analysis, but precipitation of protein may occur immediately after addition of the SF. This should be noted on the protocol. The 0 h sample is taken immediately after addition of the substance. This corresponds to the 100% value in the stability calculation. Ideally, the concentration employed should be retrieved here. The samples can be frozen at −20° C. • 0 h • 6 h • 24 h • 48 h
The negative control used is SF without substance. The positive control used is SF with 1 μM of substance. This corresponds to the 0 h value and thus 100% stability.
The concentrations measured (ng/ml) are plotted against the time in a graph (GraphPad Prism®). The percentage stability of the substance is determined here. The 100% value used is the initial value in the SF at time 0 h. The data are stored in eLabBio under the respective experiment number and reported in the MSR database (as percent stability after the corresponding incubation times).

Chain of recombinant human renin (P00797 67-406): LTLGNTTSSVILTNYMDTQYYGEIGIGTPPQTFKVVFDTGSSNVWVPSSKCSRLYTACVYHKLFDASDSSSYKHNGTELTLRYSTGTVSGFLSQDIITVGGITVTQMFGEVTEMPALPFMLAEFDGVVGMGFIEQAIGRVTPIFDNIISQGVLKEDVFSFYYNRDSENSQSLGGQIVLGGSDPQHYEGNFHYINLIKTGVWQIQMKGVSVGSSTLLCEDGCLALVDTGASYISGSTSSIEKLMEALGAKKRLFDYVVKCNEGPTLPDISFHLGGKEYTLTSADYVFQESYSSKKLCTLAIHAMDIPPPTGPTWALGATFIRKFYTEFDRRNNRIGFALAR

SMILES: CCC(CC)NC(=O)[C@@H](NC(=O)C[C@H](N)[C@H](Cc1ccccc1)NC(=O)[C@@H](NC(=O)[C@H](CC(C)C)NC(=O)CC(C)C)C(C)C)[C@@H](C)CC [Compound 39, N-[(1S,2S)-1-(1-Ethylpropylcarbamoyl)-2-methylbutyl]-(S)-3-(S)-amino-4-{(S)-3-methyl-2-[(S)-4-methyl-2-(3-methylbutyryl-amino)pentanoylamino]butyrylamino}-5-phenylpentanamide]
- IC50 (recombinant human renin): > 30 µM
- Stability in synovial fluid [1]: stable

— patent US9345742B2, “Aminostatin derivatives for the treatment of arthrosis” (MERCK PATENT GMBH, priority 2011, dated 2016)
